Data published in US9488664B2, “Diagnostic agent for tumor” (SBI Pharmaceuticals Co., Ltd., priority 2012, dated 2016).

Experiment: Side effects (stomach discomfort, nausea) in individuals given 5-ALA
Format: in vivo, human
Description: A total of eight individuals including seven healthy volunteers in whom no particular abnormality was found by health examination and the like and one volunteer with a malignant tumor, who was given a diagnosis of cancer by a doctor, were studied. The average body weight of the volunteers was 50 kg. The volunteers were instructed to ingest one capsule encapsulating 100 mg of 5-ALA before sleep and collect the first urine at the time of wake-up. Also, they were instructed to ingest, on another day, three capsules, each encapsulating 100 mg of 5-ALA, before sleep and collect the first urine at the time of wake-up.
From the above results, it was shown that administration at a dose of 300 mg can distinguish between not only the presence and absence of a tumor, but also a malignant tumor and a benign tumor. Also, it was shown that a malignant tumor can be detected by administering 100 mg of 5-ALA.
A total of 10 individuals including five healthy volunteers in whom no particular abnormality was found by health examination and the like and five volunteers with a malignant tumor, who were given a diagnosis of cancer by a doctor, ingested 1 g of 5-ALA. […]

In the case of NCC(=O)CCC(=O)O [5-ALA, 5-aminolevulinic acid], the “stomach discomfort and nausea” value (100 mg and 300 mg 5-ALA oral, eight individuals) was “neither stomach discomfort nor nausea was observed” and the “stomach discomfort and nausea” value (1 g 5-ALA ingested, 10 individuals) was “some of the volunteers developed stomach discomfort and nausea”.
